One may read the EC50 as the concentration needed to bring the measured effect to its halfway point.

The target in this assay is T1, GCase (Homo sapiens, UniProt P04062).
T1 construct: endogenous in cells; host or cells: HeLa cells
T1 sequence (P04062 40-536): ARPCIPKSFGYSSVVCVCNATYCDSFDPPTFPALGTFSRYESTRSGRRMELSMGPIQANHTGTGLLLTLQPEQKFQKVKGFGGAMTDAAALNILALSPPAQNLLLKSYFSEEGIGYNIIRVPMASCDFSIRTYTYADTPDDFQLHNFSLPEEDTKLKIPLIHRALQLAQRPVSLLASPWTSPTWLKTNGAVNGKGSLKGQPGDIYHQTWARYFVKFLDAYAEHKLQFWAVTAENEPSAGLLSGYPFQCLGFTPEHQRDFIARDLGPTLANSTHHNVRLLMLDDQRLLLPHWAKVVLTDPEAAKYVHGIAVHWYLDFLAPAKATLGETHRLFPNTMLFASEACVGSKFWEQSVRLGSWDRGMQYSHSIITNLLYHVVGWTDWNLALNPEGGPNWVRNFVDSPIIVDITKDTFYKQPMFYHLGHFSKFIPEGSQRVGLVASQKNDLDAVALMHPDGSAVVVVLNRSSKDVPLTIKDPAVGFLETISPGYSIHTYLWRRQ
As to the kind of experiment: activation of GCase in a live cell PFB assay in HELA cells. The class given is cell-based. As to conditions: activation of GCase, EC50 ranges. The procedure:
Exemplary compounds were evaluated for activation of GCase in a live cell PFB assay in HELA cells (essentially as described in Ysselstein et al., “LRRK2 kinase activity regulates lysosomal glucocerebrosidase in neurons derived from Parkinson's disease patients” Nature Communications (2019) 10:5570). […] EC50 ranges: A: <10 μM; B: >10-50 μM; C: >50-100 μM; D: >100 μM.
Turning to `FC(F)Cn1ncc2ncc(N3CCC4(CC3)CN(c3ccc(C(F)(F)F)cn3)C4)nc21` [Compound 78, 7-[1-(2,2-difluoroethyl)-1H-pyrazolo[3,4-b]pyrazin-6-yl]-2-[5-(trifluoromethyl)pyridin-2-yl]-2,7-diazaspiro[3.5]nonane], the EC50 was in the range of 10 to 50 µM.

Take `FC(F)Cn1ncc2ncc(N3CCC4(CC3)CN(c3ncccc3C(F)(F)F)C4)nc21` [Compound 79, 7-[1-(2,2-difluoroethyl)-1H-pyrazolo[3,4-b]pyrazin-6-yl]-2-[3-(trifluoromethyl)pyridin-2-yl]-2,7-diazaspiro[3.5]nonane]: the concentration for a half-maximal effect (EC50) is less than 10 µM.

For the compound `FC(F)Cn1ncc2ncc(N3CCC4(CCCC4COc4cccc(C(F)(F)F)n4)CC3)nc21` (stereo not drawn) [Compound 80, 8-[1-(2,2-difluoroethyl)-1H-pyrazolo[3,4-b]pyrazin-6-yl]-1-({[6-(trifluoromethyl)pyridin-2-yl]oxy}methyl)-8-azaspiro[4.5]decane], the half-maximal effective concentration (EC50) was in the range of 10 to 50 µM.

Regarding `FC(F)Cn1ncc2ncc(N3CCC4(CCC(Oc5cccc(C(F)(F)F)n5)C4)CC3)nc21` (stereo not drawn) [Compound 81, 8-[1-(2,2-difluoroethyl)-1H-pyrazolo[3,4-b]pyrazin-6-yl]-2-{[6-(trifluoromethyl)pyridin-2-yl]oxy}-8-azaspiro[4.5]decane], the EC50 lay in the range of 10 to 50 µM.

As to `FC(F)Cn1ncc2ncc(N3CCC4(CCC4COc4cccc(C(F)(F)F)n4)CC3)nc21` (stereo not drawn) [Compound 82, 7-[1-(2,2-difluoroethyl)-1H-pyrazolo[3,4-b]pyrazin-6-yl]-1-({[6-(trifluoromethyl)pyridin-2-yl]oxy}methyl)-7-azaspiro[3.5]nonane], the EC50 was 10 to 50 µM.

As for `FC(F)Cn1ncc2ncc(N3CCC4(CCC4Oc4cccc(C(F)(F)F)n4)CC3)nc21` (stereo not drawn) [Compound 83, 7-[1-(2,2-difluoroethyl)-1H-pyrazolo[3,4-b]pyrazin-6-yl]-1-{[6-(trifluoromethyl)pyridin-2-yl]oxy}-7-azaspiro[3.5]nonane], the 50% effective concentration (EC50) lay in the range of 10 to 50 µM.

`FC(F)Cn1ncc2ncc(N3CCC4(CC3)CC(Oc3cccc(C(F)(F)F)n3)C4)nc21` [Compound 84, 7-[1-(2,2-difluoroethyl)-1H-pyrazolo[3,4-b]pyrazin-6-yl]-2-{[6-(trifluoromethyl)pyridin-2-yl]oxy}-7-azaspiro[3.5]nonane]: the EC50 lay within 10 to 50 µM.

Regarding `FC(F)Cn1ncc2ncc(N3CCC4(CC3)CC(COc3cccc(C(F)(F)F)n3)C4)nc21` [Compound 85, 7-[1-(2,2-difluoroethyl)-1H-pyrazolo[3,4-b]pyrazin-6-yl]-2-({[6-(trifluoromethyl)pyridin-2-yl]oxy}methyl)-7-azaspiro[3.5]nonane], the EC50 was in the range of 10 to 50 µM.

`FC(F)Cn1ncc2ncc(N3CCC4(CCC(Oc5cccnc5C(F)(F)F)C4)CC3)nc21` (stereo not drawn) [Compound 86, 8-[1-(2,2-difluoroethyl)-1H-pyrazolo[3,4-b]pyrazin-6-yl]-2-{[2-(trifluoromethyl)pyridin-3-yl]oxy}-8-azaspiro[4.5]decane] came in with an EC50 of less than 10 µM.

Consider `FC(F)Cn1ncc2ncc(N3CCC4(CCC4Oc4cccnc4C(F)(F)F)CC3)nc21` (stereo not drawn) [Compound 87, 7-[1-(2,2-difluoroethyl)-1H-pyrazolo[3,4-b]pyrazin-6-yl]-1-{[2-(trifluoromethyl)pyridin-3-yl]oxy}-7-azaspiro[3.5]nonane], for which the half-maximal effective concentration (EC50) is less than 10 µM.

`FC(F)Cn1ncc2ncc(N3CCC4(CC3)CC(Oc3cccnc3C(F)(F)F)C4)nc21` [Compound 88, 7-[1-(2,2-difluoroethyl)-1H-pyrazolo[3,4-b]pyrazin-6-yl]-2-{[2-(trifluoromethyl)pyridin-3-yl]oxy}-7-azaspiro[3.5]nonane]: the concentration for a half-maximal effect (EC50) was less than 10 µM.

As for `FC(F)Cn1ncc2ncc(N3CCC4(CC3)CC(COc3cccnc3C(F)(F)F)C4)nc21` [Compound 89, 7-[1-(2,2-difluoroethyl)-1H-pyrazolo[3,4-b]pyrazin-6-yl]-2-({[2-(trifluoromethyl)pyridin-3-yl]oxy}methyl)-7-azaspiro[3.5]nonane], the EC50 lay within 10 to 50 µM.

`O=C1CC2(CCCN(c3cnc4cnn(CC(F)F)c4n3)C2)CN1c1cccc(C(F)(F)F)n1` (stereo not drawn) [Compound 95, 7-[1-(2,2-difluoroethyl)-1H-pyrazolo[3,4-b]pyrazin-6-yl]-2-[6-(trifluoromethyl)pyridin-2-yl]-2,7-diazaspiro[4.5]decan-3-one] gave an EC50 of 10 to 50 µM.

In turn, `O=C1N(c2cccc(C(F)(F)F)n2)CCC12CCCN(c1cnc3cnn(CC(F)F)c3n1)C2` (stereo not drawn) [Compound 96, 7-[1-(2,2-difluoroethyl)-1H-pyrazolo[3,4-b]pyrazin-6-yl]-2-[6-(trifluoromethyl)pyridin-2-yl]-2,7-diazaspiro[4.5]decan-1-one] registered a concentration giving a half-maximal response (EC50) of 10 to 50 µM.

`O=C1CC2(CCCN(c3cnc4cnn(CC(F)F)c4n3)C2)CN1c1cc(C(F)(F)F)ccn1` (stereo not drawn) [Compound 97, 7-[1-(2,2-difluoroethyl)-1H-pyrazolo[3,4-b]pyrazin-6-yl]-2-[4-(trifluoromethyl)pyridin-2-yl]-2,7-diazaspiro[4.5]decan-3-one]: the concentration giving a half-maximal response (EC50) was 50 to 100 µM.

In turn, `O=C1N(c2cc(C(F)(F)F)ccn2)CCC12CCCN(c1cnc3cnn(CC(F)F)c3n1)C2` (stereo not drawn) [Compound 98, 7-[1-(2,2-difluoroethyl)-1H-pyrazolo[3,4-b]pyrazin-6-yl]-2-[4-(trifluoromethyl)pyridin-2-yl]-2,7-diazaspiro[4.5]decan-1-one] gave an EC50 of 50 to 100 µM.

`O=C1N(c2cnc3cnn(CC(F)F)c3n2)CCC12CCN(c1cccc(C(F)(F)F)n1)CC2` [Compound 99, 2-[1-(2,2-difluoroethyl)-1H-pyrazolo[3,4-b]pyrazin-6-yl]-8-[6-(trifluoromethyl)pyridin-2-yl]-2,8-diazaspiro[4.5]decan-1-one]: the EC50 was less than 10 µM.

`O=C1CC2(CCN(c3cccc(C(F)(F)F)n3)CC2)CN1c1cnc2cnn(CC(F)F)c2n1` [Compound 100, 2-[1-(2,2-difluoroethyl)-1H-pyrazolo[3,4-b]pyrazin-6-yl]-8-[6-(trifluoromethyl)pyridin-2-yl]-2,8-diazaspiro[4.5]decan-3-one] had a 50% effective concentration (EC50) of 10 to 50 µM.

In turn, `O=C1CC2(CCN(c3cnc4cnn(CC(F)F)c4n3)CC2)CN1c1cccc(C(F)(F)F)n1` [Compound 101, 8-[1-(2,2-difluoroethyl)-1H-pyrazolo[3,4-b]pyrazin-6-yl]-2-[6-(trifluoromethyl)pyridin-2-yl]-2,8-diazaspiro[4.5]decan-3-one] had a 50% effective concentration (EC50) of 10 to 50 µM.

In turn, `O=C1N(c2cccc(C(F)(F)F)n2)CCC12CCN(c1cnc3cnn(CC(F)F)c3n1)CC2` [Compound 102, 8-[1-(2,2-difluoroethyl)-1H-pyrazolo[3,4-b]pyrazin-6-yl]-2-[6-(trifluoromethyl)pyridin-2-yl]-2,8-diazaspiro[4.5]decan-1-one] gave a concentration giving a half-maximal response (EC50) of 10 to 50 µM.

In turn, `FC(F)(F)c1cc(N2CCCC3(C2)CN(c2cnc4cn(Cc5ccccc5)nc4n2)C3)ccn1` [Compound 103, 2-{2-benzyl-2H-pyrazolo[3,4-b]pyrazin-6-yl}-6-[2-(trifluoromethyl)pyridin-4-yl]-2,6-diazaspiro[3.5]nonane] registered an EC50 of 10 to 50 µM.

Turning to `FC(F)(F)c1cc(N2CCCC3(C2)CN(c2cnc4cnn(Cc5ccccc5)c4n2)C3)ccn1` [Compound 104, 2-{1-benzyl-1H-pyrazolo[3,4-b]pyrazin-6-yl}-6-[2-(trifluoromethyl)pyridin-4-yl]-2,6-diazaspiro[3.5]nonane], the EC50 was 10 to 50 µM.

In the case of `Cn1c(-c2ccccc2)c(C(=O)N2CCCC3(CC(Oc4cccnc4C(F)(F)F)C3)C2)c2nccnc21` (stereo not drawn) [Compound 108, 6-{5-methyl-6-phenyl-5H-pyrrolo[2,3-b]pyrazine-7-carbonyl}-2-{[2-(trifluoromethyl)pyridin-3-yl]oxy}-6-azaspiro[3.5]nonane], the concentration for a half-maximal effect (EC50) lay in the range of 10 to 50 µM.

As to `FC(F)Cn1ncc2ncc(NC3CCC4(CC3)CN(c3cccnc3C(F)(F)F)C4)nc21` [Compound 109, N-[1-(2,2-difluoroethyl)-1H-pyrazolo[3,4-b]pyrazin-6-yl]-2-[2-(trifluoromethyl)pyridin-3-yl]-2-azaspiro[3.5]nonan-7-amine], the EC50 lay within 10 to 50 µM.

In turn, `O=C1CC2(CCN(c3ccc(C(F)(F)F)nc3)CC2)CN1c1cnc2cnn(CC(F)F)c2n1` [Compound 110, 2-[1-(2,2-difluoroethyl)-1H-pyrazolo[3,4-b]pyrazin-6-yl]-8-[6-(trifluoromethyl)pyridin-3-yl]-2,8-diazaspiro[4.5]decan-3-one] returned an EC50 of 10 to 50 µM.

In turn, `O=C1CC2(CCN(c3cncc(C(F)(F)F)c3)CC2)CN1c1cnc2cnn(CC(F)F)c2n1` [Compound 111, 2-[1-(2,2-difluoroethyl)-1H-pyrazolo[3,4-b]pyrazin-6-yl]-8-[5-(trifluoromethyl)pyridin-3-yl]-2,8-diazaspiro[4.5]decan-3-one] yielded an EC50 of 10 to 50 µM.

Turning to `O=C1CC2(CCN(c3ccc(C(F)(F)F)cn3)CC2)CN1c1cnc2cnn(CC(F)F)c2n1` [Compound 112, 2-[1-(2,2-difluoroethyl)-1H-pyrazolo[3,4-b]pyrazin-6-yl]-8-[5-(trifluoromethyl)pyridin-2-yl]-2,8-diazaspiro[4.5]decan-3-one], the concentration giving a half-maximal response (EC50) was 10 to 50 µM.

For the origin of these results see US20250034170A1, “SMALL MOLECULE MODULATORS OF GLUCOCEREBROSIDASE ACTIVITY AND USES THEREOF” (Vanqua Bio, Inc., priority 2021, published 2025).
